From ChEMBL document CHEMBL5537109, “Natural products as potential lead compounds to develop new antiviral drugs over the past decade” (Eur J Med Chem, 2023) come the findings set out here.

The structures appear in SMILES notation. In brackets after ≈: the same amount, converted by molar mass. Numbered stars: 1 amine (or outer) side, 2 acyl side, 3 side chain; on linkers, the order of the positions; unused ones are H or OH. Square brackets hold non-standard residues; d marks the D form. Peptide text beside a SMILES is read from it. dAla(ψthiazole) = C[C@@H](N[*:1])c1nc(C(=O)[*:2])cs1; Trp(4-OMe) = COc1cccc2[nH]cc(C[C@H](N)C(=O)O)c12; X1 = CC(=O)[C@](C)(N[*:1])C(=O)[*:2]; dNMeY = CN[C@H](Cc1ccc(O)cc1)C(=O)O; Dhb = C/C=C(\N)C(=O)O; Sar = CNCC(=O)O Some results are limits rather than exact numbers.

The test system of data set [1] is Human alphaherpesvirus 1. Put plainly: Antiviral activity against HSV-1 infected in African green monkey Vero cells by plaque reduction assay. It counts as functional, organism-based. Conditions: Human alphaherpesvirus 1, Vero. (In general: In a plaque reduction assay, fewer plaques than in the control indicate reduced infectivity or spread.)
The next data set has as its system Human alphaherpesvirus 3. Kind of data set: Antiviral activity against VZV infected HFF cells assessed as reduction in viral replication. It counts as functional, organism-based. Conditions: Human alphaherpesvirus 3, HFF.
Data set [2] in a line: Cytotoxicity against African green monkey Vero cells assessed as reduction in cell viability measured after 72 hrs by MTT assay. It counts as toxicity, cell-based. Conditions: chlorocebus sabaeus. On the technique in general: Tetrazolium assays rely on reduction of a dye to a coloured formazan, in cell work by metabolically active cells.
In the next data set the test system is Human alphaherpesvirus 2. Put plainly: Antiviral activity against HSV-2 186 infected in African green monkey Vero cells assessed as reduction in virus induced cytopathogenicity by plaque reduction assay. It counts as functional, organism-based. Conditions: Human alphaherpesvirus 2, Vero. For orientation: Protection from cytopathic effect is a common read-out in antiviral testing.

For data set [3], the system named is Human immunodeficiency virus 2. Put plainly: Antiviral activity against HIV-2 ROD infected in human MT4 cells assessed as protection against virus induced cytopathic effect and measured after 5 days by MTT spectrophotometric assay. It counts as functional, organism-based. Conditions: Human immunodeficiency virus 2, ROD, MT4, 120 h.
The test system of data set [4] is Human immunodeficiency virus 1. Put plainly: Antiviral activity against HIV1 A17 infected in human C8166 cells assessed as protection against virus-induced cytopathic effect incubated for 5 days by MTT assay. Conditions: Human immunodeficiency virus 1, A17, C8166, 120 h. Format: functional, organism-based.
For data set [5], the system named is Human immunodeficiency virus 2. Put plainly: Antiviral activity against HIV-2 ROD infected in C8166 cells assessed as reduction in viral replication measured after 3 days by ELISA. It counts as functional, organism-based. Conditions: Human immunodeficiency virus 2, ROD, C8166, 72 h.
Data set [6] in a line: Cytotoxicity against human MT4 cells assessed as reduction in cell viability incubated for 5 days by MTT assay. Conditions: time 5 day. It counts as toxicity, cell-based.
In data set [7] the test system is Human immunodeficiency virus 1. Put plainly: Antiviral activity against wild type HIV-1 IIIB infected in human MT4 cells assessed as protection against virus-induced cytopathic effect incubated for 5 days by MTT assay. Format: functional, organism-based. Conditions: Human immunodeficiency virus 1, IIIB, MT4, 120 h.
In data set [8] the test system is Human immunodeficiency virus 1. Put plainly: Antiviral activity against HIV1 9495 infected in human C8166 cells assessed as protection against virus-induced cytopathic effect incubated for 5 days by MTT assay. It counts as functional, organism-based. Conditions: Human immunodeficiency virus 1, 9495, C8166, 120 h.
In data set [9] the test system is Human immunodeficiency virus 2. Put plainly: Antiviral activity against wild type HIV-2 CBL-20 infected in human MT4 cells assessed as protection against virus-induced cytopathic effect incubated for 5 days by MTT assay. Conditions: Human immunodeficiency virus 2, CBL-20, MT4, 120 h. It counts as functional, organism-based.
For data set [10], the system named is Human alphaherpesvirus 1. Kind of data set: Antiviral activity against HSV-1 at 25 uM relative to control. It counts as functional.
In data set [11] the target is Human immunodeficiency virus type 1 reverse transcriptase (Human immunodeficiency virus 1, UniProt Q72547). Kind of data set: Inhibition of HIV-1 NL4-3 reverse transcriptase by RT-PCR analysis.
Another data set has as its system A549. Put plainly: Cytotoxicity against human A549 cells assessed as reduction in cell growth incubated for 5 days by MTS assay. It counts as functional. Conditions: A549, 120 h, time 5 day.
Data set [12] addresses Human immunodeficiency virus type 1 protease (Human immunodeficiency virus 1, UniProt Q72874). Put plainly: Inhibition of HIV-1 protease.
Data set [13] has as its system Human immunodeficiency virus 1. Kind of data set: Antiviral activity against HIV-1 infected in human MT4 cells assessed as reduction in viral replication. Format: functional. Conditions: Human immunodeficiency virus 1, MT4.
Data set [14] can be described thus: Cytotoxicity against human C8166 cells assessed as reduction in cell growth by MTT assay. Format: toxicity, cell-based.
Data set [15] has as its system Human immunodeficiency virus 1. Put plainly: Antiviral activity against HIV1 infected in C8166 cells assessed as reduction in viral replication measured after 3 days by ELISA. It counts as functional, organism-based.
Data set [16] concerns Human alphaherpesvirus 1. Put plainly: Antiviral activity against HSV-1 blue infected in African green monkey Vero cells assessed as reduction in virus induced cytopathogenicity by plaque reduction assay. It counts as functional, organism-based. Conditions: Human alphaherpesvirus 1, blue.
Data set [17] concerns Human alphaherpesvirus 1. Kind of data set: Antiviral activity against HSV-1 106 infected in African green monkey Vero cells assessed as reduction in virus induced cytopathogenicity by plaque reduction assay. Format: functional, organism-based. Conditions: Human alphaherpesvirus 1, 106, Vero.
For data set [18], the system named is Human alphaherpesvirus 1. Kind of data set: Antiviral activity against HSV-1 KOS infected in African green monkey Vero cells assessed as reduction in virus induced cytopathogenicity by plaque reduction assay. Format: functional, organism-based. Conditions: Human alphaherpesvirus 1, KOS.
The subject of data set [19] is Human alphaherpesvirus 1. Kind of data set: Antiviral activity against HSV-1 153 infected in African green monkey Vero cells assessed as reduction in virus induced cytopathogenicity by plaque reduction assay. It counts as functional, organism-based. Conditions: Human alphaherpesvirus 1, 153, Vero.
In a further data set the test system is Influenza A virus. Put plainly: Antiviral activity against influenza A virus (H1N1/A/WSN/33) infected in MDCK cells assessed as inhibition of cytopathic effect incubated for 48 hrs by MTT assay. It counts as functional, organism-based. Conditions: H1N1/A/WSN/33, MDCK.
Data set [20] has as its system Human immunodeficiency virus 1. Kind of data set: Antiviral activity against HIV1. It counts as functional, organism-based.
Data set [21] concerns SARS-CoV-2. Kind of data set: microbe, parasite or virus in culture. Conditions: Severe acute respiratory syndrome coronavirus 2, NRC-03-nhCoV, Vero C1008, 72 h.
A short description of data set [22]: Cytotoxicity against African green monkey Vero E6 cells assessed as reduction in cell growth incubated for 24 hrs by WST-8 assay. Conditions: chlorocebus sabaeus. It counts as toxicity, cell-based, Vero C1008.
The next data set has as its system Calu-3. Put plainly: Cytotoxicity against human Calu-3 cells assessed as reduction in cell viability measured after 48 hrs by Hoechst 33342 staining based analysis. Format: functional.
In data set [23] the test system is SARS-CoV-2. Put plainly: Antiviral activity against SARS-CoV-2 […] B.1.351 Beta infected in human 293TA cells assessed as reduction of viral growth measured after 48 hrs by luciferase assay. Format: functional, organism-based. Conditions: Severe acute respiratory syndrome coronavirus 2, […] B.1.351 Beta.
For data set [24], the target named is T1, Replicase polyprotein 1ab (Severe acute respiratory syndrome coronavirus 2, UniProt P0DTD1). Put plainly: Inhibition of SARS-CoV-2 3CL protease by FRET assay.
The test system of data set [25] is SARS-CoV-2. Put plainly: Antiviral activity against SARS-CoV-2 B.1.1.7 infected in human Calu-3 cells assessed as inhibition of viral infection measured after 48 hrs by Hoechst 33342 staining based analysis. Conditions: Severe acute respiratory syndrome coronavirus 2, B.1.1.7, Calu-3, 48 h. It counts as functional, organism-based.
Data set [26] deals with SARS-CoV-2. Kind of data set: Antiviral activity against SARS-CoV-2 RG2674 infected in African green monkey Vero cells assessed as reduction in virus-induced cytopathic effect incubated for 5 days by microscopic analysis. It counts as functional, organism-based. Conditions: Severe acute respiratory syndrome coronavirus 2, RG2674, Vero, 120 h.
For data set [27], the target named is T1, Replicase polyprotein 1ab. Kind of data set: Inhibition of SARS-CoV-2 3CL protease.

By EC50 is commonly meant the concentration giving half of the maximal effect. Usually CC50 stands for the concentration giving 50% cytotoxicity. Take `CCCCCCCCCc1oc2c(O)ccc(-c3oc4cc(O)cc(O)c4c(=O)c3O[C@@H]3O[C@H](CO)[C@H](O)[C@H](O)[C@H]3O)c2c1C=O`: the half-maximal effective concentration (EC50) in the data set with Human alphaherpesvirus 1 [1] was determined as 23.5 µM; in the data set on Human alphaherpesvirus 3, 23.5 µM; with Human alphaherpesvirus 2 it was 36.4 µM. Besides, in [2], the CC50 at 72 h amounted to 166 µM.
For `C=C(C)[C@@]12O[C@@]3(/C=C/C=C/C=C/CCC)O[C@@H]1[C@@H]1[C@@H]4O[C@]4(CO)[C@@H](O)[C@]4(O)C(=O)C(C)=C[C@H]4[C@@]1(O3)[C@H](C)[C@H]2OC(=O)/C=C/c1ccc(O)cc1`, the concentration for a half-maximal effect (EC50) in data set [3] is above 0.034 µM.
As for `C=C(C)[C@]1(O)C[C@@H](C)[C@@]2(O)[C@H]([C@H]1OC(=O)/C=C/C=C/CCCCC)[C@@H]1O[C@]1(CO)[C@@H](O)[C@]1(O)C(=O)C(C)=C[C@H]12`, the half-maximal effective concentration (EC50) in [4] came to 0.00381 µg/mL (≈ 0.00697 µM); in data set [5], 0.0189 µg/mL (≈ 0.0345 µM); in [7] it was 0.00872 µg/mL (≈ 0.016 µM); in data set [8] it was 0.0157 µg/mL (≈ 0.0286 µM); in data set [9] it was 0.0319 µg/mL (≈ 0.0584 µM). Besides, the half-maximal cytotoxic concentration (CC50) at 120 h in [6] was determined as 65.6 µg/mL (≈ 120 µM).
The compound `C=C1CC[C@]2(O)[C@H]1CC1=C(C)C(=O)OC1=C[C@]2(C)O` returned an Activity in the data set on Human alphaherpesvirus 1 [10] of 69.2%.
In general, IC50 refers to the concentration that inhibits the measured activity by half. In data set [11], `COc1ccc(C[C@@H](CO)[C@H](COC(C)=O)Cc2ccc(OC)c(OC)c2)cc1OC` showed an IC50 of 12.2 µM. The half-maximal cytotoxic concentration (CC50) in the data set on A549 came to 11.6 µg/mL (≈ 26.8 µM).
As usually defined, the EC90 is the concentration needed for an effect of 90%. `C=C(C)[C@]12C[C@@H](COC(C)=O)[C@@]3(OO1)[C@@H]1[C@H]2OCCCCCC[C@@H](C)[C@H]2[C@H](C)[C@H](OC(=O)c4ccccc4)[C@@](O)([C@H](O)[C@@]4(CO)O[C@@H]14)[C@@H]23`: 4.3 µM corresponded to half-maximal inhibition in [12] (IC50). The EC90 in data set [13] came out at 0.0004 µM.
As for `CC(C)CC(=O)O[C@H]1/C=C/C=C\C(=O)O[C@H]2[C@@H](C)C[C@@H]3[C@]2(O)[C@H](O)[C@@]2(CO)O[C@H]2[C@H]2[C@H]4OC5(c6ccccc6)O[C@@H]([C@@H](C)[C@@]23O5)[C@@]4(O)[C@](C)(O)C[C@H]2CC[C@H]1[C@H]2C`, the CC50 in [14] was found to be 0.0222 µM. Besides, the EC50 in data set [15] was 0.76 10^-3nmol.
For `COc1ccc(C[C@@H]2NC(=O)[C@@H]3CCCN3C(=O)[C@H](C(C)C)NC(=O)[C@@H](Cc3ccc(O)cc3)N(C)C(=O)[C@H](Cc3ccc(OC)cc3)NC2=O)cc1` (cyclo(PY(Me)Y(Me)[dNMeY]V)), the EC50 was 7.9 µM with Human alphaherpesvirus 1 [16], 10.4 µM in the data set on Human alphaherpesvirus 1 [17], 7.9 µM in the data set on Human alphaherpesvirus 1 [18] and 8.28 µM in the data set on Human alphaherpesvirus 1 [19]. The CC50 at 72 h in [2] is 209 µM.
Turning to `C/C=C1\NC(=O)[C@@H](C)NC(=O)CNC(=O)[C@](C)(C(C)=O)NC(=O)[C@H](Cc2c[nH]c3cccc(OC)c23)NC(=O)c2csc(n2)[C@@H](C)NC(=O)CN(C)C1=O` (cyclo([Dhb][Sar][dAla(ψthiazole)][Trp(4-OMe)][X1]G[dA])), the EC50 with Influenza A virus amounted to 0.3 µM.
With `O=c1cc(-c2ccc(O)c(-c3c(O)cc(O)c4c(=O)cc(-c5ccc(O)cc5)oc34)c2)oc2cc(O)cc(O)c12` [AMENTOFLAVONE], in data set [20], the EC50 turned out to be 8.3 µM.
Turning to `O=C(O)[C@H]1O[C@@H](Oc2cc3oc(-c4ccccc4)cc(=O)c3c(O)c2O)[C@H](O)[C@@H](O)[C@@H]1O` [BAICALIN], the EC50 in the data set with SARS-CoV-2 [21] was determined as 27.9 µM. For the same compound, the CC50 at 24 h in [22] was above 200 µM.
As for `CC(C)=CCC/C(C)=C/COc1c2ccoc2cc2oc(=O)ccc12` [BERGAMOTTIN], in the data set with Calu-3, the 50% cytotoxic concentration (CC50) was above 100 µM. Besides, the values for the IC50 (with SARS-CoV-2 [23]; in data set [24]; in the data set with SARS-CoV-2 [25]) were 14.2 µM, 9.64 µM and 8.15 µM, respectively.
For `Nc1ncnc2c1ncn2[C@@H]1O[C@H](CO)C[C@H]1O` [CORDYCEPIN], the EC50 in the data set on SARS-CoV-2 [26] was found to be 2 µM.
On to `COc1cc(O)c(C(=O)[C@@H]2[C@H](CC=C(C)C)C(C)=CC[C@H]2c2ccccc2)c(O)c1` [PANDURATIN A], for which the CC50 at 24 h in [22] was found to be 14.7 µM. Besides, 0.81 µM corresponded to half-maximal inhibition in [27] (IC50).
